One series addresses T1, recombinant human NNMT (Homo sapiens, UniProt P40261).
T1 sequence (P40261 1-264): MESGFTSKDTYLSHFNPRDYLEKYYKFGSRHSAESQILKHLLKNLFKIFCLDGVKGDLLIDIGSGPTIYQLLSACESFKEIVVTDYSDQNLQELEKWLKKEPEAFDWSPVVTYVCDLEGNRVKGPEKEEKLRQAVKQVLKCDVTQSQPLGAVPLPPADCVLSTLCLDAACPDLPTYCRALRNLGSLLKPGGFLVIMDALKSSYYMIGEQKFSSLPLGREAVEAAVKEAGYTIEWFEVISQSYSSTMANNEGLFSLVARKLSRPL
The series can be described thus: In vitro NNMT enzyme inhibition assay (Promega MTase-Glo Methyltransferase Assay). The series is classed as biochemical. As to conditions: compared with compound 1. The procedure: NNMT biochemical activity for was evaluated for compound 1 (FIG. 1), compound 2 (FIG. 2), compound 6 (FIG. 3), compound 8 (FIG. 4), compound 14 (FIG. 5), compound 16 (FIG. 6), and compound 13 (FIG. 12), using the Promega Mtase-Glo Methyltransferase Assay kit. Compounsd 4A (FIG. 7) and 4B (FIG. 8) were also tested in the assay.
Assays were performed in a white, flat-bottomed 96 well plate. […] Reactions were performed for 20 minutes at room temperature. MTase-Glo reagent and MTase-Glo detection solution were added according to manufacturer's instructions and luminescence signal measured with a SpectraMax i3 plate reader and data analyzed with GraphPad Prism version 9. Scheme 10 depicts a visual summary of the Promega MTase-Glo Methyltransferase assay used to assess biochemical activity of novel inhibitors.

A further series in a line: in vitro. The procedure: A master solution was prepared according to the following table.
40 μL of 10 mM NADPH solution was added to each well. The final concentrations of NADPH was 1 mM. The mixture was pre-warmed at 37° C. for 5 minutes. The negative control samples were prepared by replacing NADPH solutions with 40 μL of ultra-pure H2O. The negative control was used to exclude the misleading factor that resulted from instability of chemical itself. Samples with NADPH were prepared in duplicate. Negative controls were prepared in singlet.
The reaction was started with the addition of 4 μL of 200 uM control compound or test compound solutions. […] The reaction was stopped by the addition of 4 volumes of cold acetonitrile with IS (100 nM alprazolam, 200 nM imipramine, 200 nM labetalol and 2 uM ketoprofen). Samples were centrifuged at 3, 220 g for 40 minutes. Aliquot of 90 μL of the supernatant was mixed with 90 μL of ultra-pure H2O and then used for LC-MS/MS analysis.
For metabolite standard samples: 1 μL of 400 uM working solution was added to 89 μL master solution following by adding 400 μL of cold acetonitrile with internal standard (IS) (100 nM alprazolam, 200 nM Imipramine, 200 nM labetalol and 2 uM ketoprofen). Then 10 μL of 10 mM NADPH solution or ultra-pure H2O was added to the mixture. Samples were centrifuged at 3,220 g for 40 minutes to precipitate protein. Aliquots of 90 μL supernatant diluted by 90 μL of water was used for LC-MS/MS analysis.

Series [1] in a line: Mouse PK study (IV and PO) in female C57B16/N. The series is classed as in vivo. The following applies: for Tmax: iv. The procedure:
Doses were freshly prepared on the day of dosing. Vehicle compositions of each dose are listed below. For IV, an appropriate amount of the test article was dissolved in the vehicle with vortexing and/or sonication to achieve a solution with the intended concentration level. For PO, an appropriate amount of the test article was dissolved in the appropriate vehicle; vortex and/or sonication can be used to achieve a solution formulation with the intended concentration level. • IV: 0.5% Tween 80 in saline • PO: 0.2% Tween 80/10% PEG-300 in water. Adjust pH with IN hydrochloric acid to obtain a clear solution
(§1) After dosing, 0.03 mL blood samples were collected from the dorsal metatarsal vein (0.2 mL at final time point via heart puncture) at the following time points: • IV: pre-dose, 0.0833, 0.25, 0.5, 1, 2, 4, 6, 8, 24 hours post dose • PO: pre-dose, 0.25, 0.5, 1, 2, 4, 6, 8, 24 hours post dose
(§2) Blood from each sample was transferred into plastic micro centrifuge tubes with EDTAK2 as an anticoagulant. The blood samples were centrifuged at 4,000 g for 5 minutes at 4° C. to obtain plasma. Samples were immediately frozen in the upright position and stored at −75±15° C. prior to analysis.
Samples were analyzed on a AB Sciex Triple Quad 5500 LC/MS/MS instrument using a Gemini 5 μm C18 110A 150×3 mm column (XBridge BEH C18 2.5 μm 4.6×75 mm in the case of JBSNF-000265) with the following equipment installed.
The mobile phase A was 0.1% formic acid in water, and the mobile phase B was 95% acetonitrile in water (0.1% formic acid), delivered at 0.4 mL/min.
Sample Preparation: The desired serial concentrations of working solutions were achieved by diluting stock solution of analyte with 50% acetonitrile in water solution. 5 μL of working solutions (1, 2, 3, 5, 10, 50, 100, 500, 1000 ng/ml) were added to 5 μL of the blank C57B16/N mouse plasma to achieve calibration standards of 1˜1000 ng/ml (1, 2, 3, 5, 10, 50, 100, 500, 1000 ng/ml) in a total volume of 10 μL. Four quality control samples at 3 ng/mL, 5 ng/mL, 100 ng/mL, and 800 ng/mL for plasma were prepared independently of those used for the calibration curves. These QC samples were prepared on the day of analysis in the same way as calibration standards.
10 μL of standards, 10 μL of QC samples and 10 μL of unknown samples (5 μL of plasma with 5 μL of blank solution) were added to 100 μL of acetonitrile (containing D4-1-MNA 50 ng/mL) for precipitating protein respectively. Then the samples were vortexed for 30 s. After centrifugation at 4 degree Celsius, 4,000 rpm for 15 min, the supernatant was diluted 3 times with water. 10 μL of diluted supernatant (20 μL in the case of JBSNF-000265) was injected into the LC/MS/MS system for quantitative analysis.

Another series concerns 1-MNA. The series can be described thus: 1-MNA plasma PK parameters in mouse after dosing with compound. The series is classed as in vivo. The following applies: plasma 1-MNA, female C57B16/N. The procedure:
as §1, §2
Sample Preparation: 1-Methylnicotinamide (1-MNA): The desired serial concentrations of working solutions were achieved by diluting stock solution of analyte with 50% acetonitrile in water solution. 5 μL of working solutions (1, 2, 3, 5, 10, 50, 100, 500, 1000 ng/mL) were added to 5 μL of water to achieve calibration standards of 1˜1000 ng/ml (1, 2, 3, 5, 10, 50, 100, 500, 1000 ng/ml) in a total volume of 10 μL. Four quality control samples at 3 ng/ml, 5 ng/mL, 100 ng/mL, and 800 ng/ml for water were prepared independently of those used for the calibration curves. These QC samples were prepared on the day of analysis in the same way as calibration standards.
10 μL of standards, 10 μL of QC samples and 10 μL of unknown samples (5 μL of plasma with 5 μL of blank solution) were added to 100 μL of acetonitrile (containing D4-1-MNA 100 ng/mL) for precipitating protein respectively. Then the samples were vortexed for 30 s. After centrifugation at 4 degree Celsius, 4000 rpm for 15 min, the supernatant was diluted 3 times with water. 5 μL of diluted supernatant was injected into the LC/MS/MS system for quantitative analysis.

Where [2] appears, read: mouse, plasma, 1 mg/kg (Table 5B, title: IV Dosage).
The mark [3] stands for this setting: mouse, plasma, 10 mg/kg (Table 5B, title: IV Dosage).
Setting [4] is: mouse, plasma, 50 mg/kg (Table 5B, title: IV Dosage).

Turning to `CNc1cc2ccncc2cn1`, on recombinant human NNMT, the “activity in the enzyme assay (in words)” value is reported as “significantly less active”.

`CNc1cc2cc[nH]c(=O)c2cn1`: the “activity in the enzyme assay (in words)” value on recombinant human NNMT is “substrate (not inhibitor)”.

Take `CNc1cc2ccnc(N)c2cn1` [Compound 1]: the “Predicted hepatic CL” value is reported as less than 5.12 mL/min/kg in “in vitro” (human, 2 uM) and 50.12 mL/min/kg in the series “in vitro” (male, mouse, 2 uM). Also, the CLint scaled at 2 uM in the series “in vitro” (human, microsomes) is less than 6.79 mL/min/kg; in “in vitro” (male, mouse, microsomes), 113 mL/min/kg. For the same compound, the half-life at 2 uM was greater than 256 min in the series “in vitro” (human, microsomes) and 53.6 min in “in vitro” (male, mouse, microsomes). Moreover, the microsomal CLint at 2 uM in the series “in vitro” (human, microsomes) is less than 5.42 µL/min/mg; in the series “in vitro” (male, mouse, microsomes), 25.9 µL/min/mg. The “Remaining (%) at 60 minutes” value in the series “in vitro” (human, microsomes, 1 h, 2 uM) is 86.23%; in the series “in vitro” (male, mouse, microsomes, 1 h, 2 uM), 46.35%. Besides, the “% Q (mice): percent of compound remaining after 60 minutes of exposure to liver microsomes” value in the series “in vitro” (male, C57B16/N, mouse, microsomes, 1 h, 2 uM) was 46.35%. The “% Q (human): percent of compound remaining after 60 minutes of exposure to liver microsomes” value in “in vitro” (microsomes, 1 h, 2 uM) is given as 86.23%. Besides, in series [1] (3 mg/kg IV), the “AUC% Extrap—obs” value is 0.666%. The AUClast/D in series [1] (3 mg/kg IV) was determined as 97 ng·h/mL per mg/kg. In series [1] (3 mg/kg IV), the Cl_obs is recorded as 173 mL/min/kg. In addition, the F in series [1] (10 mg/kg) is 10.3%; in series [1] (50 mg/kg), 32.4%. Also, the exposure AUC(0-t) in series [1] (setting [2]) was 97 ng·h/mL; in series [1] (mouse, plasma, 3 mg/kg IV), 290 ng·h/mL; in series [1] (setting [3]), 96.4 ng·h/mL; in series [1] (setting [4]), 1540 ng·h/mL. Further, the Cmax in series [1] (setting [2]) came to 3.66 ng/mL; in series [1] (setting [3]), 145 ng/mL; in series [1] (setting [4]) it was 1350 ng/mL. The half-life in series [1] (setting [2]) is 255 min; in series [1] (mouse, plasma, 3 mg/kg IV), 25.5 min; in series [1] (setting [3]), 143 min; in series [1] (setting [4]), 473 min. This compound also had an AUC(0-inf) in series [1] (mouse, plasma, 3 mg/kg IV) of 292 ng·h/mL. In series [1] (mouse, plasma, 3 mg/kg IV), the C0 amounted to 864 ng/mL. Also, the MRT inf in series [1] (mouse, plasma, 3 mg/kg IV, read-out: MRTInf—obs) worked out at 20.8 min. Besides, the Tmax worked out at 15 min in series [1] (mouse, plasma, 10 mg/kg) and 20 min in series [1] (mouse, plasma, 50 mg/kg). The “AUClast of 1-MNA” value was 1463 ng·h/mL in the series on 1-MNA (3 mg/kg IV), 934 ng·h/mL in the series on 1-MNA (10 mg/kg PO) and 814 ng·h/mL in the series on 1-MNA (50 mg/kg PO).

These data come from patent US20250340549A1, “BICYCLIC HETEROAROMATIC INHIBITORS OF NICOTINAMIDE N-[…], AND COMPOSITIONS AND USES THEREOF” (President and Fellows of Harvard College, priority 2021, published 2025).
